Test systems include A549 NSCLC; ACHN renal; HT29 colon; LOX IMVI melanoma; NCI-H522 lung; OVCAR-3 ovarian; SK-MEL-2 melanoma; SW-620 colon; TK-10 renal.
Holding throughout (test): growth of human tumour cells (NCI), 48 h

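Interpolation was linear, between the two tested concentrations surrounding the appropriate level; five concentrations were tested over 48 hours in 96-well plates. Here, GI50 denotes the concentration required for 50% inhibition of growth. TGI marks complete inhibition of growth.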 Where only a bound is given, the exact number is not on record here.

Turning to `Cc1nc2c(o1)C(=Nc1ccccc1)c1nc(C)oc1C2=Nc1ccccc1`, the TGI is 54.1 µM with A549 NSCLC; 33.6 µM in the assay with ACHN renal; 45.5 µM in the assay on HT29 colon; 60.4 µM in the assay on LOX IMVI melanoma; 42.7 µM in the assay with NCI-H522 lung; > 100 µM in the assay on OVCAR-3 ovarian. Further, the figures for the TGI in the assay with SK-MEL-2 melanoma, in the assay with SW-620 colon and in the assay with TK-10 renal were 72.6 µM, > 100 µM and > 100 µM, respectively.
As to `Clc1cccc(-c2nnc(-c3nn(-c4ccccc4)c4nc5ccccc5nc34)o2)c1`, the TGI in the assay on A549 NSCLC, with ACHN renal, with HT29 colon, in the assay on LOX IMVI melanoma, in the assay with NCI-H522 lung and in the assay with OVCAR-3 ovarian was > 100 µM in each case. Besides, the TGI in the assay on SK-MEL-2 melanoma, in the assay with SW-620 colon and with TK-10 renal was > 100 µM in each case.
As for `COC1OC2COC(C)(C)OC2C(OC(C)=O)C1NC(=O)N(CCCl)N=O` (stereo not drawn), the TGI in the assay on A549 NSCLC was > 100 µM; with ACHN renal it was > 100 µM; in the assay on HT29 colon, > 100 µM; in the assay on LOX IMVI melanoma, > 100 µM; with NCI-H522 lung, 67.1 µM; with OVCAR-3 ovarian, > 100 µM. The TGI with SK-MEL-2 melanoma, in the assay on SW-620 colon and in the assay with TK-10 renal was > 100 µM in each case.
With `CC(=O)[CH-]C(=O)c1ccccc1.CC(=O)[CH-]C(=O)c1ccccc1.O=S(=O)([O-])c1cc([O-])c2c([O-])cc(S(=O)(=O)[O-])cc2c1.[Na+].[Zr+4]`, the GI50 in the assay with A549 NSCLC, in the assay on ACHN renal, with HT29 colon, in the assay on LOX IMVI melanoma, in the assay with NCI-H522 lung and with OVCAR-3 ovarian was > 100 µM throughout. Moreover, the GI50 with SK-MEL-2 melanoma and with SW-620 colon was > 100 µM each time. Further, the TGI in the assay on A549 NSCLC, with ACHN renal, with HT29 colon, in the assay on LOX IMVI melanoma, with NCI-H522 lung and with OVCAR-3 ovarian was > 100 µM in each case. The TGI in the assay with SK-MEL-2 melanoma and in the assay on SW-620 colon was > 100 µM each time.
As to `COc1cc(/C=N/N=C(\N)NO)c(Cl)cc1O`, the TGI in the assay with A549 NSCLC, in the assay with ACHN renal, in the assay on HT29 colon, in the assay with LOX IMVI melanoma, in the assay with NCI-H522 lung and with SK-MEL-2 melanoma was > 100 µM in each case. In the assay on SW-620 colon, the TGI was > 100 µM.
On to `Cc1cc(C)c(-c2noc(-c3ccc(Cl)cc3)c2C2=NCCCN2)c(C)c1`, for which the TGI in the assay with A549 NSCLC is > 100 µM; in the assay on ACHN renal, > 100 µM; in the assay with HT29 colon, 32.5 µM; in the assay with LOX IMVI melanoma, 37.1 µM; in the assay on NCI-H522 lung, 71.3 µM; in the assay on OVCAR-3 ovarian, > 100 µM. Besides, the TGI in the assay on SK-MEL-2 melanoma is 49.9 µM; in the assay on SW-620 colon it was > 100 µM.
Take `Nc1ccccc1C(=O)CCC1C(=O)NC(=S)NC1=O`: the TGI in the assay on A549 NSCLC, with ACHN renal, in the assay with HT29 colon, with LOX IMVI melanoma, in the assay on NCI-H522 lung and in the assay with OVCAR-3 ovarian was > 100 µM throughout. Further, the TGI in the assay with SK-MEL-2 melanoma, in the assay with SW-620 colon and in the assay on TK-10 renal was > 100 µM in each case.
Regarding `O=C(Nc1ccc(Cl)cc1Cl)OC(Cn1cncn1)c1ccc(Cl)cc1Cl` (stereo not drawn), the TGI was 33 µM in the assay on A549 NSCLC; 29 µM with ACHN renal; 28.5 µM in the assay with HT29 colon; 29.9 µM with LOX IMVI melanoma; 34.8 µM with NCI-H522 lung; 29.3 µM in the assay with OVCAR-3 ovarian. Moreover, the TGI amounted to 33.7 µM in the assay with SK-MEL-2 melanoma and 30.4 µM in the assay with SW-620 colon.
`COc1ccc(S(=O)(=O)N(CC(=O)O)c2ccccc2)cc1`: the TGI in the assay with A549 NSCLC, with ACHN renal, in the assay on HT29 colon, with LOX IMVI melanoma, with NCI-H522 lung and with OVCAR-3 ovarian was > 100 µM in each case. In addition, the TGI with SK-MEL-2 melanoma, in the assay with SW-620 colon and in the assay on TK-10 renal was > 100 µM each time.
`C/C=C1\CN2CCc3c([nH]c4ccccc34)C2CC1CCO` (stereo not drawn): the TGI with A549 NSCLC, with ACHN renal, in the assay with HT29 colon, with LOX IMVI melanoma, in the assay with NCI-H522 lung and with OVCAR-3 ovarian was > 100 µM each time. Moreover, the TGI with SK-MEL-2 melanoma, in the assay with SW-620 colon and with TK-10 renal was > 100 µM throughout.
For `N#CC(C(=O)/C(=N\NC(N)=O)C(C#N)c1ccccc1)c1ccccc1` (stereo not drawn), the TGI with A549 NSCLC, with ACHN renal, in the assay on HT29 colon, with NCI-H522 lung, in the assay with OVCAR-3 ovarian and in the assay on SK-MEL-2 melanoma was > 100 µM in each case. Further, the TGI in the assay with SW-620 colon and with TK-10 renal was > 100 µM throughout.
Take `COc1c(-c2ccccc2)nc2ccc(Oc3ccccc3)nn12`: the TGI with A549 NSCLC, in the assay on ACHN renal, with HT29 colon, in the assay on LOX IMVI melanoma, with NCI-H522 lung and with OVCAR-3 ovarian was > 100 µM each time. Besides, the TGI was > 94.4 µM in the assay on SK-MEL-2 melanoma, > 100 µM with SW-620 colon and > 100 µM with TK-10 renal.
As for `O=C1C2C3CC(C4C5C=CC(C5)C34)C2C2C3CC(C12)C1C2C=CC(C2)C31` (stereo not drawn), the TGI in the assay with A549 NSCLC, in the assay on ACHN renal, in the assay with HT29 colon, in the assay on LOX IMVI melanoma, in the assay with NCI-H522 lung and in the assay with OVCAR-3 ovarian was > 100 µM throughout. Further, the TGI was > 100 µM in the assay with SK-MEL-2 melanoma, 49.5 µM with SW-620 colon and > 100 µM with TK-10 renal.
As to `CN(/N=C/c1ccnc2ccccc12)c1c([N+](=O)[O-])cc([N+](=O)[O-])cc1[N+](=O)[O-]`, the TGI in the assay on A549 NSCLC was > 100 µM; with ACHN renal, > 100 µM; in the assay with HT29 colon, > 100 µM; in the assay on LOX IMVI melanoma, > 100 µM; in the assay on NCI-H522 lung, 92.8 µM; in the assay on OVCAR-3 ovarian, > 100 µM. Further, the values for the TGI in the assay on SK-MEL-2 melanoma, in the assay with SW-620 colon and in the assay with TK-10 renal were 89.1 µM, > 100 µM and > 100 µM, respectively.

(Values after PubChem BioAssay (NCI).)
